Reference: patent publication US7049332B2, “HIV inhibiting N-aminoimidazole derivatives” (K. U. Leuven Research & Development, priority 2001, dated 2006)
Values after ≈ are worked out from the molar mass of the structure shown.

Legend:
HIV-2 (ROD) = assay: Inhibition of HIV-induced cytopathogenic effect in MT-4 cells (MTT), HIV-2; assay type: cell-based; details: for IC50: Human immunodeficiency virus 2, MT4, 50% protection against HIV-induced cytopathogenic effect, MT-4 cells, MTT; for HIV-2 (ROD) SI: selectivity index = ratio of CC50 to IC50, HIV-2
Experimental: (§1) A rapid and automated assay procedure was used for the in vitro evaluation of anti-HIV agents. An HTLV-1 transformed T4-cell line MT-4, which was previously shown to be highly susceptible to and permissive for HIV infection, served as the target cell line. Inhibition of the HIV-induced cytopathogenic effect was used as the end point. The viabitlity of both HIV-and mock-infected cells was assessed spectrophotometrically via in situ reduction of 3-(4,5-dimethylthiazol-2-yl)-2,5-diphenyltetrazolium bromide (MTT). The 50% cytotoxic concentration (CC50 in μg/ml) was defined as the concentration of compound that reduced the absorbance of the mock-infected control sample by 50%. The percent protection achieved by the compound in HIV-infected cells was calculated by the following formula:
(§2) [formula] whereby (ODT)HIV is the optical density measured with a given concentration of the test compound in HIV-infected cells; (ODC)HIV is the optical density measured for the control untreated HIV-infected cells; (ODC)MOCK is the optical density measured for the control untreated mock-infected cells; all optical density values were determined at 540 nm. The dose achieving 50% protection according to the above formula was defmed as the 50% inhibitory concentration (IC50 in μg/ml). The ratio of CC50 to IC50 was defined as the selectivity index (SI).
(§3) Cells: MT-4 cells (Miyoshi et al., 1982) were grown and maintained in RPMI 1640 medium supplemented with 10% heat-inactivated fetal calf serum, 2 mM 1-glutamine, 0.1% sodium bicarbonate, and 20 œg of gentamicin per ml.
(§4) Viruses: The HIV-1(NL4.3) strain (Adachi et al., 1986) is a molecular clone obtained from the National Institutes of Health (Bethesda, Md.). The HIV-2(ROD) (Barr,-Sinoussi et al., 1983) stock was obtained from culture supernatant of HIV-2 infected cell lines.

[1] = Cytotoxicity in mock-infected MT-4 cells (MTT); assay type: cell-based; details: human; mock-infected MT-4 cells, absorbance reduced by 50%, MTT
Experimental: as §1, with “formula: Examples of inhibition of cell proliferation by particular compounds of formula (I) can be found by looking at the respective CC50 values in the MT-4 cell line. Cells: MT-4 cells (Miyoshi et al., 1982) were grown and maintained in RPMI 1640 medium supplemented with 10% heat-inactivated fetal calf serum, 2 mM […], 0.1% sodium bicarbonate, and 20 œg of gentamicin per ml.” for “formula:”

HIV-1 (NL4.3 WT) = assay: Inhibition of HIV-induced cytopathogenic effect in MT-4 cells (MTT), HIV-1; assay type: cell-based; details: for IC50: Human immunodeficiency virus 1, MT4, 50% protection against HIV-induced cytopathogenic effect, MT-4 cells, MTT; for HIV-1 (NL4.3 WT) SI: selectivity index = ratio of CC50 to IC50, HIV-1
Experimental: as §1, §2, §3, §4

Compound | melting point [°C] | further results
Cc1nc(SCc2ccccc2)n(Nc2cccc(Cl)c2)c1-c1ccccc1 | 130 | –
Cc1cc(C)cc(Nn2c(-c3ccccc3)c(C)[nH]c2=S)c1 [Compound 9.30, 2,3-Dihydro-1-(3,5-dimethylphenylamino)-4-methyl-5-phenyl-1H-imidazole-2-thione] | 240 to 242 | IC50 (HIV-2 (ROD)): > 65.3 µg/mL; HIV-2 (ROD) SI (HIV-2 (ROD)): <1; CC50 [1]: 65.3 µg/mL (≈ 211 µM); IC50 (HIV-1 (NL4.3 WT)): 0.3 µg/mL (≈ 0.969 µM); HIV-1 (NL4.3 WT) SI (HIV-1 (NL4.3 WT)): 241.9
Cc1[nH]c(=S)n(Nc2cccc(Cl)c2)c1-c1cccc(Br)c1 [Compound 9.05, 5-(3-Bromophenyl)-1-(3-chlorophenylamino)-2,3-dihydro-4-methyl-1H-imidazole-2-thione] | 196 | IC50 (HIV-2 (ROD)): 4.1 µg/mL (≈ 10.4 µM); HIV-2 (ROD) SI (HIV-2 (ROD)): 5.5; CC50 [1]: 22.9 µg/mL (≈ 58 µM); IC50 (HIV-1 (NL4.3 WT)): 2.2 µg/mL (≈ 5.57 µM); HIV-1 (NL4.3 WT) SI (HIV-1 (NL4.3 WT)): 10.4
Cc1[nH]c(=S)n(Nc2cccc(F)c2)c1-c1ccccc1 [Compound 9.18, 2,3-Dihydro-1-(3-fluorophenylamino)-4-methyl-5-phenyl-1H-imidazole-2-thione] | 226 | IC50 (HIV-2 (ROD)): > 47.3 µg/mL; HIV-2 (ROD) SI (HIV-2 (ROD)): <1; CC50 [1]: 47.3 µg/mL (≈ 158 µM); IC50 (HIV-1 (NL4.3 WT)): 5.5 µg/mL (≈ 18.4 µM); HIV-1 (NL4.3 WT) SI (HIV-1 (NL4.3 WT)): 8.6
Cc1cccc(Nn2c(-c3ccccc3)c(C(C)C)[nH]c2=S)c1 [Compound 9.23, 2,3-Dihydro-4-isopropyl-1-(3-methylphenylamino)-5-phenyl-1H-imidazole-2-thione] | 220 to 222 | –
Cc1[nH]c(=S)n(Nc2cccc(Br)c2)c1-c1ccccc1 [Compound 9.14, 1-(3-Bromophenylamino)-2,3-dihydro-4-methyl-5-phenyl-1H-imidazole-2-thione] | 190 | IC50 (HIV-2 (ROD)): > 17.1 µg/mL; HIV-2 (ROD) SI (HIV-2 (ROD)): <1; CC50 [1]: 17.1 µg/mL (≈ 47.5 µM); IC50 (HIV-1 (NL4.3 WT)): 1.6 µg/mL (≈ 4.44 µM); HIV-1 (NL4.3 WT) SI (HIV-1 (NL4.3 WT)): 10.5
Cc1[nH]c(=S)n(Nc2ccc(Cl)cc2)c1-c1ccccc1 [Compound 9.04, 1-(4-Chlorophenylamino)-2,3-dihydro-4-methyl-5-phenyl-1H-imidazole-2-thione] | 212 to 214 | –
COC(=O)c1cccc(-c2c(C)[nH]c(=S)n2Nc2cccc(C)c2)c1 [Compound 9.35, 2,3-Dihydro-4-methyl-1-(3-methylphenylamino)-5-(3-methoxycarbonylphenyl)-1H-imidazole-2-thione] | 164 to 166 | –
Cc1ccc(Nn2c(-c3ccccc3)c(C)[nH]c2=S)cc1Cl [Compound 9.15, 1-(3-Chloro-4-methylphenylamino)-2,3-dihydro-4-methyl-5-phenyl-1H-imidazole-2-thione] | 190 | IC50 (HIV-2 (ROD)): > 16.9 µg/mL; HIV-2 (ROD) SI (HIV-2 (ROD)): <1; CC50 [1]: 16.9 µg/mL (≈ 51.2 µM); IC50 (HIV-1 (NL4.3 WT)): 3.6 µg/mL (≈ 10.9 µM); HIV-1 (NL4.3 WT) SI (HIV-1 (NL4.3 WT)): 4.7
Cc1cccc(Nn2c(-c3ccccc3)c(C)[nH]c2=S)c1 [Compound 9.19, 2,3-Dihydro-4-methyl-1-(3-methylphenylamino)-5-phenyl-1H-imidazole-2-thione] | 206 | IC50 (HIV-2 (ROD)): > 20.7 µg/mL; HIV-2 (ROD) SI (HIV-2 (ROD)): <1; CC50 [1]: 20.7 µg/mL (≈ 70.1 µM); IC50 (HIV-1 (NL4.3 WT)): 0.6 µg/mL (≈ 2.03 µM); HIV-1 (NL4.3 WT) SI (HIV-1 (NL4.3 WT)): 32.3
Cc1[nH]c(=S)n(Nc2cccc(Cl)c2)c1-c1ccc(Cl)cc1 [Compound 9.08, 5-(4-Chlorophenyl)-1-(3-chlorophenylamino)-2,3-dihydro-4-methyl-1H-imidazole-2-thione] | 225 | –
COc1ccc(-c2c(C)[nH]c(=S)n2Nc2cccc(Cl)c2)cc1 [Compound 9.09, 2,3-Dihydro-1-(3-chlorophenylamino)-5-(4-methoxyphenyl)-4-methyl-1H-imidazole-2-thione] | 226 | –
Cc1[nH]c(=S)n(Nc2cccc(Cl)c2)c1C(=O)O [Compound 9.28, 1-(3-Chlorophenylamino)-2,3-dihydro-5-hydroxycarbonyl-4-methyl-1H-imidazole-2-thione] | 166 to 168 | –
Cc1[nH]c(=S)n(Nc2ccccc2)c1C [Compound 9.21, 2,3-Dihydro-4,5-dimethyl-1-(phenylamino)-1H-imidazole-2-thione] | 217 to 219 | –
Cc1c(-c2ccccc2)[nH]c(=S)n1Nc1cccc(Cl)c1 [Compound 9.10, 1-(3-Chlorophenylamino)-2,3-dihydro-5-methyl-4-phenyl-1H-imidazole-2-thione] | 238 | –
Cc1cccc(Nn2c(C)c(C)[nH]c2=S)c1 [Compound 9.22, 2,3-Dihydro-4,5-dimethyl-1-(3-methylphenylamino)-1H-imidazole-2-thione] | 230 | –
Cc1[nH]c(=S)n(Nc2ccc(F)cc2)c1-c1ccccc1 [Compound 9.03, 2,3-Dihydro-1-(4-fluorophenylamino)-4-methyl-5-phenyl-1H-imidazole-2-thione] | 228 | –
CSc1nc(C)c(-c2ccccc2)n1Nc1cccc(Cl)c1 | 215 | –
COC(=O)c1c(C)[nH]c(=S)n1Nc1cccc(Cl)c1 [Compound 9.27, 1-(3-Chlorophenylamino)-2,3-dihydro-5-methoxycarbonyl-4-methyl-1H-imidazole-2-thione] | 194 to 196 | –
S=c1[nH]c(-c2ccccc2)c(-c2ccccc2)n1Nc1cccc(Cl)c1 [Compound 9.26, 1-(3-Chlorophenylamino)-2,3-dihydro-4,5-diphenyl-1H-imidazole-2-thione] | 178 to 180 | –
Cc1[nH]c(=S)n(Nc2cccc(Cl)c2)c1C [Compound 9.20, 2,3-Dihydro-4,5-dimethyl-1-(3-chlorophenylamino)-1H-imidazole-2-thione] | 234 | –
CCc1[nH]c(=S)n(Nc2cccc(Cl)c2)c1-c1ccccc1 [Compound 9.24, 1-(3-Chlorophenylamino)-2,3-dihydro-4-ethyl-5-phenyl-1H-imidazole-2-thione] | 116 to 118 | –
COC(=O)c1[nH]c(=S)n(Nc2cccc(Cl)c2)c1C [Compound 9.29, 1-(3-Chlorophenylamino)-2,3-dihydro-4-methoxycarbonyl-5-methyl-1H-imidazole-2-thione] | 160 to 162 | –

More lines, main results first:

melting point [°C] | Compound | further results
178 | Cc1ncn(Nc2ccccc2)c1C [Compound 13.06, 4,5-Dimethyl-1-phenylamino-1H-imidazole] | –
155 | Cc1ncn(Nc2ccc(F)cc2)c1-c1ccccc1 [Compound 13.10, 1-(4-Fluorophenylamino)-4-methyl-5-phenyl-1H-imidazole] | –
165 to 167 | Cc1ncn(Nc2ccccc2)c1-c1ccccc1 [Compound 13.05, 4-Methyl-5-phenyl-1-phenylamino-1H-imidazole] | –
138 to 140 | Cc1cccc(Nn2cnc(C)c2-c2cccc(C#N)c2)c1 [Compound 13.16, 5-(3-Cyanophenyl)-4-methyl-1-(3-methylphenylamino)-1H-imidazole] | –
146 | Cc1ncn(Nc2cccc(Cl)c2)c1C [Compound 13.07, 1-(3-Chlorophenylamino)-4,5-dimethyl-1H-imidazole] | –
180 | Clc1cccc(Nn2cnc3c2CCCC3)c1 [Compound 13.04, 1-(3-Chlorophenylamino)-4,5,6,7-tetrahydro-1H-benzimidazole] | –
154 to 156 | Cc1cc(C)cc(Nn2cnc(C)c2-c2ccccc2)c1 [Compound 13.13, 1-(3,5-Dimethylphenylamino)-4-methyl-5-phenyl-1H-imidazole] | –
156 to 158 | COc1cccc(Nn2cnc(C)c2-c2ccccc2)c1 [Compound 13.14, 1-(3-Methoxyphenylamino)-4-methyl-5-phenyl-1H-imidazole] | –
144 | Cc1cccc(Nn2cnc(C)c2C)c1 [Compound 13.08, 4,5-Dimethyl-1-(3-methylphenylamino)-1H-imidazole] | –
158 to 160 | CCc1ncn(Nc2cccc(C)c2)c1-c1ccccc1 [Compound 13.11, 4-Ethyl-1-(3-methylphenylamino)-5-phenyl-1H-imidazole] | –
